pIC50: −log10 of the molar value. Blank lines part the entries; values can stand above or below the molecule they belong to.
System: 171881-019-R-J1-PDC tumor spheroids, viability
Assay: Anticancer human tumor 171881-019-R-J1-PDC patient-derived invasive breast carcinoma cell line growth inhibition [GQUAD]
Details: spheroids with HUVEC and MSC; for pIC50: curve of first compound; for viability, T/C: stronger effect = lower value
Procedure, shortened: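 Tumor cells were grown as complex spheroids with HUVEC endothelial cells and mesenchymal stem cells as stroma. G-quadruplex stabilizers were combined with targeted agents over half-log dilutions from near the clinical Cmax, or from 10 microM.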

[1] = second compound 0.0316 µM, first compound 0.0316 µM
[2] = second compound 0.0316 µM, first compound 0.1 µM
[3] = second compound 0.0316 µM, first compound 0.316 µM
[4] = second compound 0.0316 µM, first compound 1 µM
[5] = second compound 0.0316 µM, first compound 3.16 µM
[6] = second compound 0.0316 µM, first compound 10 µM
[7] = second compound 0.1 µM, first compound 0.0316 µM
[8] = second compound 0.1 µM, first compound 0.1 µM
[9] = second compound 0.1 µM, first compound 0.316 µM
[10] = second compound 0.1 µM, first compound 1 µM
[11] = second compound 0.1 µM, first compound 3.16 µM
[12] = second compound 0.1 µM, first compound 10 µM
[13] = second compound 0.316 µM, first compound 0.0316 µM
[14] = second compound 0.316 µM, first compound 0.1 µM
[15] = second compound 0.316 µM, first compound 0.316 µM
[16] = second compound 0.316 µM, first compound 1 µM
[17] = second compound 0.316 µM, first compound 3.16 µM
[18] = second compound 0.316 µM, first compound 10 µM
[19] = second compound 1 µM, first compound 0.0316 µM
[20] = second compound 1 µM, first compound 0.1 µM
[21] = second compound 1 µM, first compound 0.316 µM
[22] = second compound 1 µM, first compound 1 µM
[23] = second compound 1 µM, first compound 3.16 µM
[24] = second compound 1 µM, first compound 10 µM
[25] = second compound 3.16 µM, first compound 0.0316 µM
[26] = second compound 3.16 µM, first compound 0.1 µM
[27] = second compound 3.16 µM, first compound 0.316 µM
[28] = second compound 3.16 µM, first compound 1 µM
[29] = second compound 3.16 µM, first compound 3.16 µM
[30] = second compound 3.16 µM, first compound 10 µM
[31] = second compound 10 µM, first compound 0.0316 µM
[32] = second compound 10 µM, first compound 0.1 µM
[33] = second compound 10 µM, first compound 0.316 µM
[34] = second compound 10 µM, first compound 1 µM
[35] = second compound 10 µM, first compound 3.16 µM
[36] = second compound 10 µM, first compound 10 µM
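Further: spheroids exposed to compounds for 7 days.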
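Wherever viability, T/C is given: 100% = DMSO vehicle control viability.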

pIC50 (second compound 0.0316 µM): 6.39 | pIC50 (second compound 0.1 µM): 6.57 | pIC50 (second compound 0.316 µM): 6.77 | pIC50 (second compound 1 µM): 6.77 | pIC50 (second compound 3.16 µM): 6.95 | pIC50 (second compound 10 µM): 6.99
SMILES: COc1ccc([C@@H](O)c2cc(-c3ncnc4cc(N5CCOCC5)ccc34)c(F)cc2Cl)nn1 + Cc1cnc(CNC(=O)c2c(=O)c3ccc(N4CCCN(C)CC4)nc3n3c2sc2ccccc23)cn1
viability, T/C [1]: 93.2% | viability, T/C [2]: 77.1% | viability, T/C [3]: 60.5% | viability, T/C [4]: 22.4% | viability, T/C [5]: 9.13% | viability, T/C [6]: 5.12% | viability, T/C [7]: 75.6% | viability, T/C [8]: 76% | viability, T/C [9]: 43.7% | viability, T/C [10]: 19.1% | viability, T/C [11]: 8.81% | viability, T/C [12]: 4.57% | viability, T/C [13]: 73.1% | viability, T/C [14]: 58% | viability, T/C [15]: 40.5% | viability, T/C [16]: 17% | viability, T/C [17]: 9.34% | viability, T/C [18]: 6.36% | viability, T/C [19]: 64.9% | viability, T/C [20]: 56.8% | viability, T/C [21]: 41.8% | viability, T/C [22]: 18% | viability, T/C [23]: 10.8% | viability, T/C [24]: 4.62% | viability, T/C [25]: 60.7% | viability, T/C [26]: 49.4% | viability, T/C [27]: 39.4% | viability, T/C [28]: 18.9% | viability, T/C [29]: 11.2% | viability, T/C [30]: 4.88% | viability, T/C [31]: 53.8% | viability, T/C [32]: 52.3% | viability, T/C [33]: 37.8% | viability, T/C [34]: 21.7% | viability, T/C [35]: 11.8% | viability, T/C [36]: 4.99%

SMILES: CCc1c2c(nc3ccc(O)cc13)-c1cc3c(c(=O)n1C2)COC(=O)[C@]3(O)CC + CN(C)c1ccc(Nc2c3ccc(NC(=O)CCN4CCCC4)cc3nc3cc(NC(=O)CCN4CCCC4)ccc23)cc1
pIC50 (second compound 0.0316 µM): 8.10 | pIC50 (second compound 0.1 µM): 8.11 | pIC50 (second compound 0.316 µM): 8.36 | pIC50 (second compound 1 µM): > 9.00 | pIC50 (second compound 3.16 µM): > 9.00 | pIC50 (second compound 10 µM): > 9.00 | viability, T/C (second compound 0.0316 µM, first compound 0.000999 µM): 91.8% | viability, T/C (second compound 0.0316 µM, first compound 0.00316 µM): 56.5% | viability, T/C (second compound 0.0316 µM, first compound 0.00999 µM): 49.2% | viability, T/C [1]: 42.3% | viability, T/C (second compound 0.0316 µM, first compound 0.0999 µM): 33.4% | viability, T/C [3]: 24.8% | viability, T/C (second compound 0.1 µM, first compound 0.000999 µM): 94.9% | viability, T/C (second compound 0.1 µM, first compound 0.00316 µM): 55.6% | viability, T/C (second compound 0.1 µM, first compound 0.00999 µM): 50.2% | viability, T/C [7]: 43.8% | viability, T/C (second compound 0.1 µM, first compound 0.0999 µM): 32.4% | viability, T/C [9]: 27.4% | viability, T/C (second compound 0.316 µM, first compound 0.000999 µM): 77.1% | viability, T/C (second compound 0.316 µM, first compound 0.00316 µM): 51.1% | viability, T/C (second compound 0.316 µM, first compound 0.00999 µM): 42.2% | viability, T/C [13]: 30.9% | viability, T/C (second compound 0.316 µM, first compound 0.0999 µM): 30.3% | viability, T/C [15]: 22% | viability, T/C (second compound 1 µM, first compound 0.000999 µM): 16.3% | viability, T/C (second compound 1 µM, first compound 0.00316 µM): 12.6% | viability, T/C (second compound 1 µM, first compound 0.00999 µM): 17% | viability, T/C [19]: 11% | viability, T/C (second compound 1 µM, first compound 0.0999 µM): 7.94% | viability, T/C [21]: 6.83% | viability, T/C (second compound 3.16 µM, first compound 0.000999 µM): 2.04% | viability, T/C (second compound 3.16 µM, first compound 0.00316 µM): 1.12% | viability, T/C (second compound 3.16 µM, first compound 0.00999 µM): 2.08% | viability, T/C [25]: 1.29% | viability, T/C (second compound 3.16 µM, first compound 0.0999 µM): 1.67% | viability, T/C [27]: 1.67% | viability, T/C (second compound 10 µM, first compound 0.000999 µM): 0.56% | viability, T/C (second compound 10 µM, first compound 0.00316 µM): 0.37% | viability, T/C (second compound 10 µM, first compound 0.00999 µM): 0.38% | viability, T/C [31]: 0.48% | viability, T/C (second compound 10 µM, first compound 0.0999 µM): 0.49% | viability, T/C [33]: 0.16%

SMILES: COc1ccc([C@@H](O)c2cc(-c3ncnc4cc(N5CCOCC5)ccc34)c(F)cc2Cl)nn1 + Cc1[nH]c2ccc(F)cc2c1-c1nc2c3cccnc3c3ncccc3c2[nH]1
pIC50 (second compound 0.0316 µM): 6.13 | pIC50 (second compound 0.1 µM): 6.12 | pIC50 (second compound 0.316 µM): 6.24 | pIC50 (second compound 1 µM): 6.37 | pIC50 (second compound 3.16 µM): > 7.50 | pIC50 (second compound 10 µM): > 7.50 | viability, T/C [1]: 107% | viability, T/C [2]: 81.3% | viability, T/C [3]: 74.5% | viability, T/C [4]: 45% | viability, T/C [5]: 14.7% | viability, T/C [6]: 5.38% | viability, T/C [7]: 87.2% | viability, T/C [8]: 84.5% | viability, T/C [9]: 70.1% | viability, T/C [10]: 44.6% | viability, T/C [11]: 14% | viability, T/C [12]: 5.6% | viability, T/C [13]: 85.6% | viability, T/C [14]: 90.2% | viability, T/C [15]: 56.5% | viability, T/C [16]: 41% | viability, T/C [17]: 15.5% | viability, T/C [18]: 5.95% | viability, T/C [19]: 94.2% | viability, T/C [20]: 67% | viability, T/C [21]: 64.4% | viability, T/C [22]: 32.3% | viability, T/C [23]: 12.2% | viability, T/C [24]: 6.67% | viability, T/C [25]: 28.9% | viability, T/C [26]: 15.3% | viability, T/C [27]: 14.5% | viability, T/C [28]: 9.07% | viability, T/C [29]: 8.31% | viability, T/C [30]: 4.66% | viability, T/C [31]: 37.8% | viability, T/C [32]: 45.4% | viability, T/C [33]: 26.6% | viability, T/C [34]: 17.3% | viability, T/C [35]: 9.52% | viability, T/C [36]: 5.39%

From PubChem BioAssay AID2060498 (Molecular Pharmacology Branch, DTP, NCI, 2025)
